Measurements reported in PMC5445473, “Identification of Enterococcus faecalis enzymes with azoreductases and/or nitroreductase activity” (BMC Microbiology, 2017).

Columns and labels:
Assay in all cases: LC-ESI-MS of natively purified enzyme; activity of apo-enzyme restored by FMN
Assay type in all cases: binding
Details in all cases: native purification; apo-enzyme assay with 5 uM FMN, pH 7, 35 °C
EF0655 = target: T1, EF0655 (Enterococcus faecalis, UniProt Q838B7)
T1 construct: gene EF_0655; E. coli XL1Blue; about 22 kDa; forward primer starts after the initiator Met
T1 sequence (Q838B7 2-198): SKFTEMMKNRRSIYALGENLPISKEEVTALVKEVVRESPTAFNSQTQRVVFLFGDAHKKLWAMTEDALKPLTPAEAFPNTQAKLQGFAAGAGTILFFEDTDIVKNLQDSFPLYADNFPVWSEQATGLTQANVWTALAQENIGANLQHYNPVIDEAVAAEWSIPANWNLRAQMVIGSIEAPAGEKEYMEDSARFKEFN

AzoA = target: T2, AzoA (Enterococcus faecalis, UniProt Q831B2)
T2 construct: gene azoR; E. coli XL1Blue; about 25 kDa; forward primer starts after the initiator Met
T2 sequence (Q831B2 2-208): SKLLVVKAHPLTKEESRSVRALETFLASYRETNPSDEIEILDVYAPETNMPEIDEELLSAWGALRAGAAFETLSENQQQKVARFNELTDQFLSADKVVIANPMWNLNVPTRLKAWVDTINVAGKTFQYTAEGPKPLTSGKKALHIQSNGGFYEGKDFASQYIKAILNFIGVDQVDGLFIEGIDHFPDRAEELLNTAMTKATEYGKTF

EF0648 = target: T3, EF0648 (Enterococcus faecalis, UniProt Q838C2)
T3 construct: gene EF_0648; E. coli XL1Blue; about 25 kDa
T3 sequence (Q838C2 2-205): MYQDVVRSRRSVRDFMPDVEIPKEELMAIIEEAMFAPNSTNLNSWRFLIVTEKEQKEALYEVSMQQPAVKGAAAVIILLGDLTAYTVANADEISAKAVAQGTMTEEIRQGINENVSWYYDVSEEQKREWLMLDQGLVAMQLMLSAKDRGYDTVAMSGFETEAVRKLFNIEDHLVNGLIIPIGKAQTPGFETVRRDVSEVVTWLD

EF1181 = target: T4, EF1181 (Enterococcus faecalis, UniProt Q836D4)
T4 construct: gene EF_1181; E. coli XL1Blue; about 30 kDa; forward primer starts after the initiator Met
T4 sequence (Q836D4 2-244): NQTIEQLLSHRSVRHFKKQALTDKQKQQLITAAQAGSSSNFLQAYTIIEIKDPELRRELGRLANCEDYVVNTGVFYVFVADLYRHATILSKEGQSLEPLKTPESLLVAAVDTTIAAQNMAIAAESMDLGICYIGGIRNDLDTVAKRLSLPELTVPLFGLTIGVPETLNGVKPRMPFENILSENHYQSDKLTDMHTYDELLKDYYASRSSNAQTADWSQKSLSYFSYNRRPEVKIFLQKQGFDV

EF0404 = target: T5, EF0404 (Enterococcus faecalis, UniProt Q838N5)
T5 construct: gene EF_0404; E. coli XL1Blue; about 25 kDa; forward primer starts after the initiator Met
T5 sequence (Q838N5 2-211): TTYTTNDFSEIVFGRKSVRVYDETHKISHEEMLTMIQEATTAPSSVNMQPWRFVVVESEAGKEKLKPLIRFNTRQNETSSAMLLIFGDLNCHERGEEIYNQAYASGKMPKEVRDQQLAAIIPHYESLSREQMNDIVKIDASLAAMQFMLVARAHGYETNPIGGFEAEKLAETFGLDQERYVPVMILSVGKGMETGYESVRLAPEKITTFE

Structure (SMILES): Cc1cc2nc3c(=O)[nH]c(=O)nc-3n(C[C@H](O)[C@H](O)[C@H](O)COP(=O)(O)O)c2cc1C [FMN]
- LC-ESI-MS of natively purified enzyme; activity of apo-enzyme restored by FMN (EF0655): confirmed FMN presence for the enzymes purified using native conditions
- LC-ESI-MS of natively purified enzyme; activity of apo-enzyme restored by FMN (AzoA): confirmed FMN presence for the enzymes purified using native conditions
- LC-ESI-MS of natively purified enzyme; activity of apo-enzyme restored by FMN (EF0648): confirmed FMN presence for the enzymes purified using native conditions
- LC-ESI-MS of natively purified enzyme; activity of apo-enzyme restored by FMN (EF1181): confirmed FMN presence for the enzymes purified using native conditions
- LC-ESI-MS of natively purified enzyme; activity of apo-enzyme restored by FMN (EF0404): confirmed FMN presence for the enzymes purified using native conditions
